Measured values reported in patent publication US20240058403A1, “YEAST PARTICLES FOR DELIVERY OF WATER-ACTIVATED SELF-EMULSIFYING CANNABINOID FORMULATIONS” (UNIVERSITY OF MASSACHUSETTS, priority 2022, published 2024).
“Also recorded” adds a separate entry of the source. Read-outs that look alike come from different tables or passages of the source.

Assays:
[1] = Sustained CBD release from GLPs with sequestering/release agents in simulated saliva; type: physicochemical
Method: GLPs were loaded at a weight ratio of CBD:OA:GLP of 2:1:1. […] Aliquots (200 μL) were collected at 1, 3, 6 and 24 h and the samples were centrifuged to separate supernatant (released CBD fraction) and GLP pellet. Released CBD was quantified in the supernatants by HPLC as described before.
The effect of addition of RAs to CBD with OA as SA was tested.
GLPs were loaded with CBD, OA and various RAs. Release assays were performed by the procedure described as before.
[…] Aliquots (200 μL) were collected at 1, 3, 6 and 24 h and the samples were centrifuged to separate supernatant (released CBD fraction) and GLP pellet. Released CBD was quantified in the supernatants by HPLC as described before.

[2] = Fast release of cannabinoids from GLPs embedded in adjuvant, simulated saliva with or without tissue, 1 minute; type: physicochemical; details: for cannabinoid release from GLP in 1 minute: cannabinoid loaded alone, no release agent; for THC released in 1 minute: 37° C.
Method: Composition of simulated saliva was 0.72 g/L potassium chloride, 0.22 g/L calcium chloride dihydrate, 0.68 g/L potassium phosphate monobasic, 0.866 g/L sodium phosphate dibasic, 1.5 g/L potassium bicarbonate, 0.06 g/L potassium thiocyanate, and 0.03 g/L citric acid. Samples of dry GLP-THC (4 mg) were resuspended in 1 mL of (A) water, (B) dry glycerin or (C) SEDDS mixture (3.3 mg/mL lecithin in 3% MCT in glycerin). The GLP THC suspensions were diluted with simulated saliva (25% simulated saliva+75% GLP THC in solvent mixture) with and without the addition of a sample of 75-100 mg fat tissue. The samples were incubated for 1 minute at 37° C., and then the fractions were separated to quantify THC in the GLP pellet (THC not released), THC in supernatant (released) and THC in the tissue (released from GLP and absorbed by the tissue). The THC absorbed in the tissue was extracted in 100% methanol and the THC remaining in GLPs was extracted in 80% ethanol-20% water. The THC in all fractions was quantified by HPLC.
GLPs were loaded with a THC:GLP weight ratio of 1:1 and embedded in different solvents. THC release was achieved and quantified as described before (FIG. 9).
GLPs were loaded with a THC and undecanoic acid as a release agent (RA). Loaded GLPs were embedded in adjuvants (water, glycerin or SEDDS mixture). THC release was achieved and quantified as described before (FIG. 9).
GLPs were loaded with a CBD, CBN or CBG and octanoic acid as a RA. Loaded GLPs were embedded in adjuvant water or SEDDS mixture. Cannabinoid release was achieved and quantified as described before for THC (FIG. 9).

C. albicans = details: by enhancing potassium leakage and disrupting membrane fluidity; cited from earlier work
H. pylori = details: cited from earlier work
S. cerevisiae = details: by enhancing potassium leakage and disrupting membrane fluidity; cited from earlier work
[3] = Stability of CBD-SA-RA o/w emulsions; type: physicochemical; details: for Stable CBD o/w emulsion: 1 mg/mL in water, room temperature 30 minutes; for Stable CBD-OA-RA o/w emulsion: 1 mg/mL in water by sonication, room temperature for 30 minutes, precipitate/phase partitioning = unstable
[4] = Micelle size of CBD-SA-RA emulsions; type: physicochemical
[5] = Release of oleamide from GLPs in simulated saliva with or without tissue; type: physicochemical
Method: The release of oleamide encapsulated in GLPs using octanoic acid or undecanoic acid as loading solvent or as leave-in solvent was tested. To perform the release assay, the GLP-oleamide suspensions were diluted with simulated saliva (25% simulated saliva+75% GLP in solvent mixture) with and without the addition of a sample of 75-100 mg fat tissue. […], and then the fractions were separated to quantify oleamide in the GLP pellet (unreleased oleamide), oleamide in the supernatant (released) and oleamide in the tissue (released from GLP and absorbed by the tissue). The oleamide absorbed in the tissue was extracted in 100% methanol and the oleamide remaining in GLPs was extracted in 80% ethanol-20% water. The oleamide in all fractions was quantified by HPLC. […] Oleamide was released at a low efficiency (2%) from GLPs with simulated saliva and higher efficiency (34-40%) with simulated saliva and tissue. The addition of UA as the leave-in solvent increased OA release from 34% to 46% in 5 minutes and from 40% to 58% with simulated saliva and tissue

[6] = hydrophilic-lipophilic balance; cited from earlier work
[7] = Sustained THC release from GLP-THC-UDA with or without RA in simulated saliva + tissue; type: physicochemical; details: simulated saliva + tissue at 37° C.; 1 to 24 h
Method: GLPs were loaded at a weight ratio of CBD:OA:GLP of 2:1:1. Dry GLP-CBD (5 mg) were resuspended in 1 mL of simulated saliva, a 75-100 mg piece of simulated tissue was added to the sample and incubated at 37° C. with constant mixing. Aliquots (200 μL) were collected at 1, 3, 6 and 24 h and the samples were centrifuged to separate supernatant (released CBD fraction) and GLP pellet. Released CBD was quantified in the supernatants by HPLC as described before.
The effect of addition of RAs to THC with UDA as SA was tested. Release assays were performed as described as before.

[8] = Maximum solubility of surfactants in OA or UDA; type: physicochemical
[9] = Physical state of THC-UDA-RA mixture at room temperature; type: physicochemical
Method: Various RAs were tested as described before for their ability to stabilize micelles formed when GLPs encapsulate THC as the payload and UDA as the SA.

[10] = CBD-SA-RA emulsion, RA TRITON X100 20 % w/w

C=C(C)[C@@H]1CCC(C)=C[C@H]1c1c(O)cc(CCCCC)cc1O [CBD, cannabidiol, reference compound]
time after which CBD release plateaued ([1]; GLPs CBD:OA:GLP 2:1:1, OA as SA, simulated saliva): 6 h | CBD released after 24 h incubation ([1]; GLPs CBD:OA:GLP 2:1:1, OA as SA, simulated saliva (without simulated tissue), 37° C.): ≤ 25% | cannabinoid release from GLP in 1 minute [2]: do not release efficiently

CCCCCc1cc(O)c(C/C=C(\C)CCC=C(C)C)c(O)c1 [CBG, cannabigerol]
cannabinoid release from GLP in 1 minute [2]: do not release efficiently

CCCCCc1cc(O)c2c(c1)OC(C)(C)c1ccc(C)cc1-2 [CBN, cannabinol]
cannabinoid release from GLP in 1 minute [2]: do not release efficiently

CC(C)=CCC/C(C)=C/CO [Geraniol]
growth inhibition (C. albicans): inhibit the growth | concentration that inhibited in vitro growth (H. pylori): 2 mg/L | growth inhibition (S. cerevisiae): inhibit the growth

C=CC(C)(O)CCC=C(C)CCC=C(C)C (stereo not shown) [Nerolidol]
Stable CBD o/w emulsion ([3]; CBD-SA emulsion without RA): No | Stable CBD o/w emulsion [3, 10]: Yes | total CBD release at 24 hours ([1]; SA plus TRITON X-100 as RA, simulated saliva + tissue at 37° C.): 37% | course of CBD release with SA and TRITON X-100 as RA ([1]; simulated saliva + tissue at 37° C.): did not lead to CBD release in the first 6 hours | CBD-SA-RA micelle size (nm) ([4]; RA TRITON X100 20 % w/w): 661 nm | CBD-SA-RA micelle size (nm) ([4]; without RA): 1260 nm

CCCCCCCC(=O)O [Octanoic acid]
Stable CBD o/w emulsion ([3]; CBD-SA emulsion without RA): No | Stable CBD o/w emulsion [3, 10]: Yes | CBD-SA-RA micelle size (nm) ([4]; without RA): 379 nm

CCCCCCCC/C=C\CCCCCCCC(N)=O [Oleamide, oleamide]
% oleamide Released ([5]; simulated saliva (no tissue), 1 hour): 2% | % oleamide Released ([5]; simulated saliva + tissue, 5 minutes): 34% | % oleamide Released ([5]; simulated saliva + tissue, 1 hour): 40% | oleamide release efficiency ([5]; simulated saliva and tissue, 5 minutes to 1 hour): 34-40%

CCCCCc1cc(O)c2c(c1)OC(C)(C)[C@@H]1CCC(C)=C[C@@H]21 [THC, tetrahydrocannabinol]
THC released in 1 minute ([2]; GLPs (THC:GLP 1:1) embedded in SEDDS mixture (lecithin/MCT/glycerin), simulated saliva with tissue): up to 53% | THC released in 1 minute ([2]; GLPs (THC:GLP 1:1) embedded in SEDDS mixture (lecithin/MCT/glycerin), simulated saliva without tissue): Up to 30% | THC released in 1 minute ([2]; GLPs (THC:GLP 1:1) embedded in glycerin, simulated saliva containing tissue): Up to 30%

TRITON ™ X-100
HLB [6]: 13.5 | Stable CBD-OA-RA o/w emulsion [3]: Yes | Stable CBD-OA-RA o/w emulsion ([3]; listed as TRITON™ X-100): form stable micelles | effect of RA on sustained THC release from GLP-THC-UDA [7]: did not improve sustained release from 1 to 6 h; also recorded: yielded high THC release at the 24 hour time point | Maximum solubility in OA [8]: 20% w/w | Maximum solubility in UDA [8]: 37.5% w/w | fold increase of CBD release compared to GLP-CBD-OA control sample ([1]; GLP-CBD-OA-RA, simulated saliva with tissue): 1.7-2.0 fold | effect of RA on sustained CBD release from GLP-CBD-OA ([1]; simulated saliva with tissue, 1 to 6 hours): improvement of sustained release from 1 to 6 hours | Physical State of THC-UDA-RA mixture at room temperature [9]: mixture of oil and solid UDA | Physical State of THC-UDA-RA mixture at room temperature ([9]; listed as TRITONTM X-100): Solid

TWEEN 20
HLB [6]: 16.7 | Stable CBD-OA-RA o/w emulsion [3]: No | Maximum solubility in OA [8]: 20% w/w

TWEEN 80
HLB [6]: 15 | Stable CBD-OA-RA o/w emulsion [3]: No | Maximum solubility in OA [8]: 25% w/w
